Patent US9504730B2, “Method of achieving a thymosin beta 4 concentration in a human patient” (REGENERX BIOPHARMACEUTICALS, INC., priority 2010, dated 2016)

Columns and labels:
[1] = Thymosin dosage regimens calculated with Formula II; design: species or system human
From the text: A physician or health care provider may first determine a desired concentration of thymosin beta 4 (or a desired increase in concentration of thymosin beta 4 from an existing level) in a body portion of a live human patient in need of treatment. The physician or health care provider may then calculate the dosage necessary to achieve the desired concentration using the formula: C=(A)D·t^−B (Formula I), or D=C/(A)(t^−B) (Formula IA), wherein C is the predetermined thymosin beta 4 concentration to be provided in ng/mL, D is the dosage of thymosin beta 4 administered in mg, t is the time elapsed after administration of an initial dosage of thymosin beta 4 in hours (t is treated as a constant in this equation), A is about 30 to about 38, and B is about 0.5 to about 1. According to one embodiment, the formula is C=(35.6)D·t^−0.754 (Formula II). Time, t, may be 1, and D may equal C/35.6.
A patient in need of thymosin beta 4 treatment with a concentration of 10,000 ng/mL exogenous thymosin beta 4 is administered thymosin beta 4 according to a dosage schedule wherein D and t are calculated using C=(35.6)D*t[…].
A patient in need of thymosin beta 4 treatment with a concentration of 10,000 ng/mL exogenous thymosin beta 4 with a 1-hour dosing frequency is administered D=C/(A)t^−B=10,000 ng/mL/(35.6)(1^−0.75 h)=281 mg thymosin beta 4. […]

[2] = Analysis of TB4 concentration data from human patients administered different dosages of thymosin beta 4; type: in vivo; design: key to whether first dose brings TB4 concentration that high: ~: indicates first dose does not bring TB4 concentration that high; *: indicates the most efficient treatment (as determined by total required)
From the text: The above formulas were developed by analysis of data from human patients who had been administered different dosages of thymosin beta 4. The frequency of dosing needed between dosages to achieve the desired concentration over time, multiplied by the dosage, gave the total drug administered in a 24-hour period. The dosage that maintained the required concentration with the lowest total drug administered was termed the most efficient. See Exampe I, below.
Based on the data collected, concentrations of TB4 in the body portion follow (especially soon after administration, with a decreasing correlation over time) a power function. An estimation of the concentration of thymosin beta 4 at 1 hour was determined using this model with an average within 10% of the experimental mean for the concentrations tested. The concentrations in the tested patients at 1 hour give an approximate range that can be efficiently maintained because the concentrations at about 1 hour are approximately 15% of the initial concentration (mean 14.7%, median 13.3%). The concentration found in human patients at 5 minutes after initial administration intravenously was defined as the initial concentration, and as Cmax, i.e. the maximum concentration achieved after administration of a dose. For the calculations made in the studies, the range of concentration which is the effective and desired dose was assumed to be 5-25% of this initial concentration (Cmax). In general, intervals between intravenous treatment times of about an hour also are the most reliably efficient in achieving and maintaining a particular concentration. Therefore, in certain embodiments, when calculating dosage using Formula I or Formula II, t may equal about 1. The concentration which is achieved with a particular dosage of thymosin beta 4 at 5 minutes (Cmax) can be found using Formula I by calculating C using the particular dosage (D) and 0.083 hours (5 minutes) as t.
Using Formula II, concentration at 1 hour is (35.6)D. In certain embodiments, the formula gives the concentration with an average error of about 10%, calculated against the experimental mean from in vivo patient data. Formulas I and II where t=1, therefore, provide a reasonable estimation of a concentration that is an acceptable and effective concentration to provide therapeutic treatment.
Treatment regimens to maintain a given dose (data summary): […]

[3] = Concentration > 1000 ng/mL in blood, infusion dosage 42 mg per dose
[4] = Concentration > 1000 ng/mL in blood, infusion dosage 140 mg per dose
[5] = Concentration > 1000 ng/mL in blood, infusion dosage 420 mg per dose
[6] = Concentration > 1000 ng/mL in blood, infusion dosage 1260 mg per dose
[7] = Concentration > 5000 ng/mL in blood, infusion dosage 42 mg per dose
[8] = Concentration > 5000 ng/mL in blood, infusion dosage 140 mg per dose
[9] = Concentration > 5000 ng/mL in blood, infusion dosage 420 mg per dose
[10] = Concentration > 5000 ng/mL in blood, infusion dosage 1260 mg per dose
[11] = Concentration > 10000 ng/mL in blood, infusion dosage 42 mg per dose
[12] = Concentration > 10000 ng/mL in blood, infusion dosage 140 mg per dose
[13] = Concentration > 10000 ng/mL in blood, infusion dosage 420 mg per dose
[14] = Concentration > 10000 ng/mL in blood, infusion dosage 1260 mg per dose
[15] = Concentration > 20000 ng/mL in blood, infusion dosage 140 mg per dose
[16] = Concentration > 20000 ng/mL in blood, infusion dosage 420 mg per dose
[17] = Concentration > 20000 ng/mL in blood, infusion dosage 1260 mg per dose
[18] = Concentration > 40000 ng/mL in blood, infusion dosage 420 mg per dose
[19] = Concentration > 40000 ng/mL in blood, infusion dosage 1260 mg per dose
[20] = human patients, intravenous, initial concentration = 5 minutes after administration (Cmax)

## CC[C@H](C)[C@H](NC(=O)[C@H](CCC(=O)O)NC(=O)[C@H](C)NC(=O)[C@H](CCSC)NC(=O)[C@H](CC(=O)O)NC(=O)[C@@H]1CCCN1C(=O)[C@H](CCCCN)NC(=O)[C@H](CC(=O)O)NC(=O)[C@H](CO)NC(C)=O)C(=O)N[C@@H](CCC(=O)O)C(=O)N[C@@H](CCCCN)C(=O)N[C@@H](Cc1ccccc1)C(=O)N[C@@H](CC(=O)O)C(=O)N[C@@H](CCCCN)C(=O)N[C@@H](CO)C(=O)N[C@@H](CCCCN)C(=O)N[C@@H](CC(C)C)C(=O)N[C@@H](CCCCN)C(=O)N[C@@H](CCCCN)C(=O)N[C@H](C(=O)N[C@@H](CCC(=O)O)C(=O)N[C@H](C(=O)N[C@@H](CCC(N)=O)C(=O)N[C@@H](CCC(=O)O)C(=O)N[C@@H](CCCCN)C(=O)N[C@@H](CC(N)=O)C(=O)N1CCC[C@H]1C(=O)N[C@@H](CC(C)C)C(=O)N1CCC[C@H]1C(=O)N[C@@H](CO)C(=O)N[C@@H](CCCCN)C(=O)N[C@@H](CCC(=O)O)C(=O)N[C@H](C(=O)N[C@H](C(=O)N[C@@H](CCC(=O)O)C(=O)N[C@@H](CCC(N)=O)C(=O)N[C@@H](CCC(=O)O)C(=O)N[C@@H](CCCCN)C(=O)N[C@@H](CCC(N)=O)C(=O)N[C@@H](C)C(=O)NCC(=O)N[C@@H](CCC(=O)O)C(=O)N[C@@H](CO)C(=O)O)[C@@H](C)CC)[C@@H](C)O)[C@@H](C)O)[C@@H](C)O [thymosin beta 4, Thymosin beta 4]
[1]; 10,000 ng/mL exogenous thymosin beta 4, 200 mg unit dosage forms
  time t between dosage forms calculated for the desired concentration: 0.637 h
[1]; 10,000 ng/mL exogenous thymosin beta 4, 1-hour dosing frequency
  dosage D calculated for the desired concentration: 281 mg
[2]; C in ng/mL, D in mg, t in hours, developed by analysis of human patient data
  A of Formula II C=(A)D·t^−B (concentration at 1 hour is (35.6)D): 35.6
[2]; [3]
  Frequency of administration: 2 h
  Total TB4 required for 24 hour treatment: 504 mg
[2]; [4]
  Frequency of administration: 3 h
  Total TB4 required for 24 hour treatment: 1120 mg
[2]; [5]
  Frequency of administration: 6 h
  Total TB4 required for 24 hour treatment: 1680 mg
[2]; [6]
  Frequency of administration: 9 h
  Total TB4 required for 24 hour treatment: 3360 mg
[2]; [7]
  Frequency of administration: 0.167 h
  Total TB4 required for 24 hour treatment: 6048 mg
[2]; [8]
  Frequency of administration: 1 h
  Total TB4 required for 24 hour treatment: 5040 mg
[2]; [9]
  Frequency of administration: 2 h
  Total TB4 required for 24 hour treatment: 5040 mg
[2]; [10]
  Frequency of administration: 4 h
  Total TB4 required for 24 hour treatment: 7560 mg
[2]; [11]
  Frequency of administration: 0.083 h
  Total TB4 required for 24 hour treatment: 12096 mg
[2]; [12]
  Frequency of administration: 0.333 h
  Total TB4 required for 24 hour treatment: 10080 mg
[2]; [13]
  Frequency of administration: 1 h
  Total TB4 required for 24 hour treatment: 10080 mg
[2]; [14]
  Frequency of administration: 3 h
  Total TB4 required for 24 hour treatment: 10080 mg
[2]; Concentration > 20000 ng/mL in blood, infusion dosage 42 mg per dose
  whether first dose brings TB4 concentration that high: ~42
[2]; [15]
  Frequency of administration: 0.167 h
  Total TB4 required for 24 hour treatment: 20160 mg
[2]; [16]
  Frequency of administration: 0.667 h
  Total TB4 required for 24 hour treatment: 15120 mg
[2]; [17]
  Frequency of administration: 2 h
  Total TB4 required for 24 hour treatment: 15120 mg
[2]; Concentration > 40000 ng/mL in blood, infusion dosage 42 mg per dose
  whether first dose brings TB4 concentration that high: ~42
[2]; Concentration > 40000 ng/mL in blood, infusion dosage 140 mg per dose
  whether first dose brings TB4 concentration that high: ~140
[2]; [18]
  Frequency of administration: 0.167 h
  Total TB4 required for 24 hour treatment: 60480 mg
[2]; [19]
  Frequency of administration: 1 h
  Total TB4 required for 24 hour treatment: 30240 mg
[2]; human patients, experimental data, Cmax = 5-minute concentration
  average concentration at 1 hour after administration, % of Cmax (SD): 15.7%±1.32%
[2]; [20]
  concentration at about 1 hour as % of the initial concentration, mean: 14.7%
  concentration at about 1 hour as % of the initial concentration, median: 13.3%
[2]; human patients, intravenous, initial concentration = 5 minutes after administration (Cmax), approximate
  concentration at about 1 hour as % of the initial concentration: approximately 15%
[2]; human, in vivo, intravenous, 6 mg/kg to 18 mg/kg dosing (420 mg and 1260 mg unit dose, respectively), read-out: Cmax levels
  Cmax: 90 to 350 µg/mL
